Experimental data published in patent US9487489B2, “Halogen-substituted pyrazole derivatives as pest-control agents” (BAYER CROPSCIENCE AKTIENGESELLSCHAFT, priority 2013, dated 2016).

Tests used:
[1] = tested on: engorged adult female cattle ticks (Boophilus microplus); experiment: Boophilus microplus injection test (BOOPMI Inj); type: in vivo; conditions: application rate 20 μg/animal; injection into abdomen; assessed after 7 days
Protocol: C. Boophilus microplus-injection Test (BOOPMI Inj)
(§1) Solvent: dimethyl sulphoxide
To produce a suitable preparation of active compound, 10 mg of active compound are mixed with 0.5 ml of solvent, and the concentrate is diluted with solvent to the desired concentration.
1 μl of the active compound solution is injected into the abdomen of 5 engorged adult female cattle ticks (Boophilus microplus). The animals are transferred into dishes and kept in a climate-controlled room.
The activity is assessed after 7 days by laying of fertile eggs. Eggs whose fertility is not visible from the outside are stored in a climate-controlled cabinet until the larvae hatch after about 42 days. An efficacy of 100% means that none of the ticks has laid any fertile eggs; 0% means that all eggs are fertile.

[2] = tested on: larvae of the mustard beetle (Phaedon cochleariae); experiment: Phaedon cochleariae spray test (PHAECO); type: in vivo; conditions: Chinese cabbage leaf discs, after 7 days
Procedure, shortened: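 Kill of mustard beetle larvae is read as % mortality 7 days after spraying. Spray liquid: active compound in acetone plus dimethylformamide, brought up with water holding 1000 ppm alkylaryl polyglycol ether emulsifier and diluted further in emulsifier-water.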

[3] = tested on: greenhouse red spider mite (Tetranychus urticae); experiment: Tetranychus urticae spray test, OP-resistant (TETRUR); type: in vivo; conditions: bean leaf discs, after 6 days
Protocol: J. Tetranychus urticae-spray Test, OP-Resistant (TETRUR)
(§2) Solvent: 78.0 parts by weight of acetone
(§3) • 1.5 parts by weight of dimethylformamide Emulsifier: alkylaryl polyglycol ether
(§4) To produce a suitable preparation of active compound, 1 part by weight of active compound is dissolved using the stated parts by weight of solvent and made up with water comprising an emulsifier concentration of 1000 ppm until the desired concentration is reached. To produce further test concentrations, the preparation is diluted with emulsifier-containing water.
Discs of bean leaves (Phaseolus vulgaris) which are infested by all stages of the greenhouse red spider mite (Tetranychus urticae) are sprayed with an active compound preparation of the desired concentration.
After 6 days, the efficacy in % is determined. 100% means that all of the spider mites have been killed; 0% means that none of the spider mites have been killed.

[4] = tested on: adult cat fleas (Ctenocephalides felis); experiment: Ctenocephalides felis oral test (CTECFE); type: in vivo; conditions: application rate 100 ppm in citrated cattle blood; after 2 days
Protocol: D. Ctenocephalides felis-oral Test (CTECFE)
as §1
To produce a suitable preparation of active compound, 10 mg of active compound are mixed with 0.5 ml of dimethyl sulphoxide. Dilution with citrated cattle blood gives the desired concentration.
About 20 unfed adult cat fleas (Ctenocephalides felis) are placed into a chamber which is closed at the top and bottom with gauze. A metal cylinder whose bottom end is closed with a parafilm is placed onto the chamber. The cylinder contains the blood/active ingredient preparation, which can be imbibed by the fleas through the parafilm membrane.
After 2 days, the kill in % is determined 100% means that all of the fleas have been killed; 0% means that none of the fleas have been killed.

[5] = tested on: L1 larvae of the Australian sheep blowfly (Lucilia cuprina); experiment: Lucilia cuprina test (LUCICU); type: in vivo; conditions: application rate 100 ppm; after 2 days
Protocol: E. Lucilia cuprina Test (LUCICU)
as §1
To produce a suitable preparation of active compound, 10 mg of active compound are mixed with 0.5 ml of dimethyl sulphoxide, and the concentrate is diluted with water to the desired concentration.
About 20 L1 larvae of the Australian sheep blowfly (Lucilia cuprina) are transferred into a test vessel containing minced horsemeat and the active compound preparation of the desired concentration.
After 2 days, the kill in % is determined 100% means that all of the larvae have been killed; 0% means that none of the larvae have been killed.

[6] = tested on: adult cat fleas (Ctenocephalides felis); experiment: Ctenocephalides felis in vitro contact test with adult cat fleas (T1); conditions: after 48 h
Procedure, shortened: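 Adult cat fleas (Ctenocephalides felis), 5-10 per tube, were exposed to the inner surface of 25 ml test tubes coated with compound in acetone. Tubes were incubated lying flat under ambient conditions. Efficacy was then read by standing tubes upright and knocking the fleas to the floor. Fleas that stayed motionless or moved uncoordinatedly counted as dead or moribund, where 100% means all fleas dead or moribund and 0% means none harmed.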

[7] = tested on: caterpillars of the armyworm (Spodoptera frugiperda); experiment: Spodoptera frugiperda spray test (SPODFR); type: in vivo; conditions: maize leaf discs, after 7 days
Protocol: I. Spodoptera frugiperda-spray Test (SPODFR)
as §2, §3, §4
Leaf discs of maize (Zea mays) are sprayed with an active compound preparation of the desired concentration and, after drying, populated with caterpillars of the armyworm (Spodoptera frugiperda).
After 7 days, the efficacy in % is determined. 100% means that all of the caterpillars have been killed; 0% means that none of the caterpillars have been killed.

[8] = logP determination by HPLC on a reversed-phase column (C18), EEC Directive 79/831 Annex V.A8; type: physicochemical
Procedure, shortened: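 Per EEC 79/831 Annex V.A8, values derive from HPLC retention at 2.0 ml/min and 55° C on a 50*4.6 C18 column. The 10→95% acetonitrile gradient (0.1%/0.09% formic acid) lasted 4.25 min plus a 1.25 min hold; mass detection was by MSD.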

[9] = HPLC on reversed-phase column (C18), acetonitrile/water with formic acid, EEC Directive 79/831 Annex V.A8

| SMILES | efficacy (laying of fertile eggs) [1] | efficacy in % ([2]; application rate 500 g/ha) | efficacy in % ([3]; application rate 100 g/ha) | efficacy (kill in %) [4] | efficacy (kill in %) [5] | efficacy in % ([3]; application rate 500 g/ha) | efficacy (dead or moribund fleas) ([6]; application rate 1 μg/cm^2) | efficacy (dead or moribund fleas) ([6]; application rate 5 μg/cm^2) | efficacy in % ([7]; application rate 500 g/ha) | efficacy in % ([2]; application rate 100 g/ha) | logP [8, 9] | efficacy in % ([7]; application rate 100 g/ha) | logP ([8]; HPLC, reversed-phase C18, acetonitrile (0.1% formic acid)/water (0.09% formic acid) gradient) |
| --- | --- | --- | --- | --- | --- | --- | --- | --- | --- | --- | --- | --- | --- |
| COc1cc(C(=O)NC2(C#N)CC2)cc(-c2cnn(-c3c(C(F)(F)F)c(C(F)(F)C(F)(F)F)nn3C)c2)c1 [Ic-63] | 100% | 100% | 100% | 95% | 100% | – | – | – | – | – | – | – | – |
| CC(C)C(C)NC(=O)c1cc(-c2cnn(-c3c(C(F)(F)F)c(C(F)(F)C(F)(F)F)nn3C)c2)ccc1Cl (stereo not shown) [Ic-137] | 100% | 83% | – | 100% | 100% | 100% | – | – | – | – | – | – | – |
| Cn1nc(C(F)(F)C(F)(F)F)c(C(F)(F)F)c1-n1cc(-c2ccc(Cl)c(C(=O)Nc3cccnc3)c2)cn1 [Ic-149] | 100% | 100% | – | 100% | 100% | 100% | 80% | 100% | 100% | – | – | – | – |
| Cn1nc(C(F)(F)F)c(C#N)c1-n1cc(-c2ccc(Cl)c(C(=O)NC3(C#N)CC3)c2)cn1 [Ic-53] | 100% | – | – | 100% | 100% | – | – | – | – | 100% | 2.92 | – | – |
| Cn1nc(C(F)(F)C(F)(F)F)c(C(F)(F)F)c1-n1cc(-c2ccc(Cl)c(C(=O)NC3CC3)c2)c(C(F)(F)F)n1 [Ic-4] | 100% | – | – | 100% | 100% | – | – | – | – | – | 4.51 | – | – |
| Cc1c(-c2ccc(Cl)c(C(=O)NC3CC3)c2)cnn1-c1c(C(F)(F)F)c(C(F)(F)C(F)(F)F)nn1C [Ic-13] | 100% | – | 90% | 100% | 100% | – | – | – | – | 100% | 3.88 | 100% | – |
| Cn1nc(C(F)(F)C(F)(F)F)c(C(F)(F)F)c1-n1ccc(-c2ccc(Cl)c(C(=O)NC3CC3)c2)n1 [Id-2] | 100% | – | – | 100% | 95% | – | – | – | – | 100% | – | 100% | 3.97 |
| Cn1nc(C(F)(F)C(F)(F)F)c(C(F)(F)F)c1-n1cc(-c2cccc(C(=O)NCc3ccccc3)c2)cn1 [Ic-17] | 100% | – | 100% | 90% | 100% | – | – | – | – | 100% | 4.31 | 100% | – |
| Cn1nc(C(F)(F)C(F)(F)F)c(C(F)(F)F)c1-n1cc(-c2ccc(Cl)c(C(=O)Nc3cc[nH]n3)c2)cn1 [Ic-150] | 100% | 100% | – | 100% | 100% | 100% | – | – | 100% | – | – | – | – |
| CON=Cc1c(C(F)(F)F)nn(C)c1-n1cc(-c2ccc(Cl)c(C(=O)NC3(C#N)CC3)c2)cn1 (mixture of isomers) [Ic-99] | 100% | – | 100% | 100% | 80% | – | – | – | – | 100% | 3.09 | – | – |
| O=C(NC1CC1)c1cc(-c2cnn(-c3c(C(F)(F)F)c(C(F)(F)C(F)(F)F)nn3-c3ccc([N+](=O)[O-])cc3)c2)ccc1Cl [Ic-8] | 100% | – | – | 100% | 100% | – | – | – | – | – | 4.54 | – | – |
| Cc1cc(C(=O)NC2(C#N)CC2)cc(-c2cnn(-c3c(C(F)(F)F)c(C(F)(F)C(F)(F)F)nn3C)c2)c1 [Ic-56] | 100% | 100% | 90% | 100% | 100% | – | – | – | – | – | – | – | – |
| Cn1nc(C(F)(F)C(F)(F)F)c(C(F)(F)F)c1-n1cc(-c2cc(Cl)nc(C(=O)NC3(C#N)CC3)c2)cn1 [Ic-89] | 100% | 100% | – | 90% | 100% | – | – | – | 83% | – | – | – | – |
| Cn1nc(C(F)(F)C(F)(F)F)c(C(F)(F)F)c1-n1cc(-c2cccc(C(N)=O)c2)cn1 [Ic-35] | 80% | – | – | 100% | 100% | – | – | – | – | 100% | 3.1 | – | – |
| Cn1nc(C(F)(F)C(F)(F)F)c(C(F)(F)F)c1-n1cc(-c2ccc(Cl)c(C(=O)NCc3cc[nH]n3)c2)cn1 [Ic-157] | 100% | 100% | – | 90% | 100% | 100% | – | – | 100% | – | – | – | – |
| COCC(C)NC(=O)c1cc(-c2cnn(-c3c(C(F)(F)F)c(C(F)(F)C(F)(F)F)nn3C)c2)ccc1Cl (stereo not shown) [Ic-165] | 100% | 100% | – | 100% | 100% | 100% | 100% | 100% | 100% | – | – | – | – |
| Cn1nc(C(F)(F)C(F)(F)F)c(C(F)(F)F)c1-n1cc(-c2cc(OC(F)(F)F)cc(C(=O)NC3(C#N)CC3)c2)cn1 [Ic-75] | 100% | 100% | – | 100% | 100% | – | – | – | 100% | – | – | – | – |
